Measurements published in patent US20040048842A1, “Method of treating skin disorders” (priority 2002, published 2004).
Where “and” joins values, the source holds several entries; their conditions need not be identical. Equal values may be shown once.

What was measured:
[1] = spectral region about 640 to about 940 nanometers; cited from earlier work
[2] = Absorption peaks of photosensitizers; assay type: physicochemical; settings: relevant absorption peaks, Table 1
Excerpt: FIG. 1 is a graph showing the absorption bands of protoporphyrin IX, which is produced as a result of 5-aminolevulinic acid metabolism in a mammal. Protoporphyrin IX has an absorption band located in the blue spectral region (the 410 nanometer Soret band) and other weaker absorption bands in the 500 to 650 nanometer visible region, namely at about 506 nanometers, 546 nanometers, and 578 nanometers. […] Table 1 lists several photosensitizers useful in the practice of the invention, and identifies relevant absorption peaks for each of the listed photosensitizers. While the 460 nanometer to 620 nanometer wavelength range includes the relatively strong absorption peaks of oxyhemoglobin and deoxyhemoglobin, these blood components have other absorption peaks (although of lower relative maxima) at longer wavelengths. For example, deoxyhemoglobin has a weaker absorption peak at about 757 nanometers, and oxyhemoglobin has a weaker absorption peak at about 920 nanometers. Pulsed light sources in the red and near infrared (up to approximately 940 nanometers), for example, the flash lamp pumped alexandrite laser (755 nanometer), or semiconductor diode lasers, for example, gallium arsenide laser (810 nanometer) are capable of selective photothermolysis of blood vessels, including the microvessels in psoriatic lesions. Accordingly, under certain circumstances, it may be advantageous to use a source of pulsed or scanned irradiation having a wavelength in the range from about 640 nanometers to about 940 nanometers to perform combined selective photothermolysis of blood vessels and photodynamic therapy (using the appropriate photosensitizer) in the target region. Useful photosensitizers that absorb light in this spectral region include, for example, Pd(II)-octabutoxyphthalocyanine (732 nm, 838 nm), Si(IV)-napthalocyanine (773 nm)(Jori (1996) J. PHOTOCHEM. PHOTOBIOL. B 87-93), and 5,15-etiobacteriopurpurin (768 nm, 843 nm) (U.S. Pat. No. 6,376,483 B1).

Pd(II)-octabutoxyphthalocyanine
wavelength of light absorbed [1]: 732 nm and 838 nm

nickel 5,10-bis-acrylate etioporphyrin I
Wavelength of absorption peaks [2]: 580 nm

benzoporphyrin derivative mono-acid
Wavelength of absorption peaks [2]: ˜585 nm

5,15-etiobacteriopurpurin
wavelength of light absorbed [1]: 768 nm and 843 nm

Si(IV)-napthalocyanine
wavelength of light absorbed [1]: 773 nm

O=C([O-])c1c(Cl)c(Cl)c(Cl)c(Cl)c1-c1c2cc(I)c(=O)c(I)c-2oc2c(I)c([O-])c(I)cc12.[Na+].[Na+] [rose bengal]
Wavelength of absorption peaks [2]: 548 nm
